In patent US8883798B2, “Pyrimidine compounds inhibiting the formation of nitric oxide and prostaglandin E2, method of production thereof and use thereof” (Ustav Organicke Chemie a Biochemie Akademie Ved CR, V.V.I., priority 2011, dated 2014):
One block for each molecule: values may come before it.

What was measured:
[1] = system: production of nitric oxide (NO); assay: Production of nitric oxide (NO) in cultures of mouse peritoneal cells stimulated with IFN-γ plus LPS (Griess reagent); assay type: cell-based, mice; conditions: Table 3A; substance 50 μmol·l^−1; IFN-g plus LPS; 24 h
How it was run: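 C57BL/6 mouse peritoneal cells (2×10^6/mL) stimulated with IFN-γ (5000 pg/mL) plus LPS (100 pg/mL), compounds at 50 μmol·l^−1. Nitrite measured by Griess reagent after 24 h, expressed as % of stimulated control (set 100%); IC50 is concentration reducing NO by 50%.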

[2] = system: production of prostaglandin E2 (PGE2); assay: Production of prostaglandin E2 (PGE2) in cultures of mouse peritoneal cells stimulated with LPS (ELISA kit); assay type: cell-based, mice; conditions: Table 3A, substance 50 μmol·l^−1, 6 h
How it was run: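 C57BL/6 mouse peritoneal cells (3×10^6/mL) stimulated with LPS (10 ng/mL). PGE2 measured by ELISA.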

peritoneal cells of mice = assay: Cell viability of mouse peritoneal cells (WST-1 kit); assay type: cell-based; conditions: Table 3A, substance 50 μmol·l^−1, 24 h
How it was run: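 C57BL/6 mouse peritoneal cells (1×10^6/mL) cultured 24 h with compounds at 50 μmol·l^−1. Viability read with WST-1 tetrazolium salt and expressed as percent of untreated control cells (100%).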

[3] = system: human umbilical vein endothelial cells (HUVEC); assay: Tube formation assay of HUVEC on Matrigel (in vitro angiogenesis); assay type: cell-based; conditions: 8 h
Excerpt: This so called “Tube Formation Assay” is a method based on the ability of endothelial cells to form capillary-like tubular structures when cultured on Matrigel™ (a gel of basement membrane extract—their natural substrate). The process of capillary-like tube formation includes endothelial cell attachment, migration, and differentiation into tubules. In this experiment, treatment with tested compounds started at the time of seeding HUVEC onto Matrigel and the extent of tubule development was observed after an 8 h time period. Disruption of tube formation was then assessed through observation of the tubular network and direct comparison to solvent-only controls. The quantitative and qualitative measurement of tubular network complexity was performed using web-based S.CORE imaging software and expressed by means of number of tubes, their total length, quality, number of branching points, etc. All these parameters were integrated into “tube formation index” which corresponds to the degree of complexity of tubular network. […] At a 10 μmol/L concentration, compound 23 reduced tube formation by >90%. […] Apoptosis in HUVECs (at ˜70% confluency) treated with or without varying concentrations (relevant for the tube formation assay) of tested substances was assessed by a combination of Annexin V and JC-1 staining. After 8 h of these treatments, cells were collected, and the cell population undergoing apoptosis was identified by double-parameter flow cytometry using annexin V and the vital dye propidium iodide (PI). Mitochondrial membrane potential in treated endothelial cells was measured using the lypophilic probe JC-1, which aggregates in healthy mitochondria and fluoresces red, but diffuses in the cytoplasm and fluoresces green upon mitochondrial damage. In both cases, quantification of apoptotic cells were conducted in BD FACSDiva software.

HUVEC = HUVEC cell proliferation (XTT assay); assay type: cell-based, human; conditions: 10 to 50 μmol/L, 8 hours
[4] = system: Salmonella typhimurium TA 98 and TA 100, Escherichia coli WP2 uvrA
Procedure: With compound 28, its possible mutagenicity (genotoxicity) was assessed using the standard bacterial reverse mutation test. According to Council Regulation (ES) No. 440/2008, stipulating the test methods according to the European Parliament and Council regulation (ES), the method used was B.13/14, Mutagenicity—Reverse Mutation Test Using Bacteria, which is described in the same way also in the OECD Test Guideline No. 471.
[…] The experiments were conducted without using metabolic activation and after activation with supernatant S9 from […] livers and with mixtures of cofactors (NADP and glucoso-6-phosphate) to determine the mutagenicity of the metabolic products of the compound tested. Supernatant S9 was prepared according to the literature [Mutat. Res. 113, 173-215, 1983].
The principle of the test is to detect possible revertants created by reverse mutation, which would be induced in the bacterial culture by the tested compound. Specially constructed bacterial strains are used, carrying mutations in the place for his (trp), which are not capable of forming colonies on the minimum plates without histidine or tryptophan. […] Mutagenic potential is given by the growing number of revertants in the influenced groups in comparison with a negative control, and/or in dependence on the growing number of revertants on the dose of the tested compound.
Bacterial testers, types Salmonella typhimurium TA 98 (CCM 3811) and Escherichia coli WP2 uvrA (CCM 4751), were acquired from the Czech Collection of Microorganisms of Masaryk University, Brno and the strain Salmonella typhimurium TA100 (CIP 103796, lot No. 1008) from the Biological Resource Center, Institut Pasteur in Paris (CRBIP).

Structure (SMILES): CCCCc1c(Cl)nc(N=CN(C)C)nc1Cl [Substance 19]
Production of nitric oxide in % of the controls [1]: 2.99 ± 0.53 % of the controls | Production of prostaglandins in % of the controls [2]: 14.93 ± 3.11 % of the controls | Cell viability in % of the controls (peritoneal cells of mice): 123.21 ± 21.43 % of the controls | Effect on tube formation ([3]; 10 μmol/L): no inhibitory activity was detectable | Effect on tube formation ([3]; 25 μmol/L): Partial differentiation | Capillary tube formation [3]: inhibited capillary tube formation in a dose dependent manner | HUVEC cell proliferation (HUVEC): did not influence HUVEC cell proliferation

Structure (SMILES): CN(C)C=Nc1nc(Cl)c(Cc2ccccc2)c(Cl)n1 [Substance 23]
Production of nitric oxide in % of the controls [1]: 4.41 ± 0.59 % of the controls | Production of prostaglandins in % of the controls [2]: 3.05 ± 1.26 % of the controls | Cell viability in % of the controls (peritoneal cells of mice): 96.24 ± 11.9 % of the controls | Effect on tube formation ([3]; 10 μmol/L): tube disruption | Reduction of tube formation ([3]; 10 μmol/L): > 90% | Capillary tube formation [3]: inhibited capillary tube formation in a dose dependent manner | Concentration from which antiangiogenic activity was apparent [3]: ≥ 5 µmol/L | HUVEC cell proliferation (HUVEC): did not influence HUVEC cell proliferation

Structure (SMILES): Nc1nc(Cl)c(Cc2ccccc2)c(Cl)n1 [Substance 34]
Production of nitric oxide in % of the controls [1]: 50.57 ± 9.31 % of the controls | Production of prostaglandins in % of the controls [2]: 3.71 ± 2.00 % of the controls | Cell viability in % of the controls (peritoneal cells of mice): 105.92 ± 20.65 % of the controls | Mutagenicity (reverse mutation) ([4]; all strains, all tested concentrations, with and without metabolic activation): non-mutagenous

melting point: 198 to 199 °C
Structure (SMILES): Nc1nc(I)c(Cc2ccccc2)c(I)n1 [Substance 38, 2-amino-5-benzyl-4,6-diiodopyrimidine]

melting point: 154 to 155 °C
Structure (SMILES): Nc1nc(Br)c(Cc2ccccc2)c(Br)n1 [Substance 40, 2-amino-5-benzyl-4,6-dibromopyrimidine]

melting point: 183 to 185 °C
Structure (SMILES): CCCCc1c(Cl)nc(N)nc1-c1ccccc1 [Substance 41, 2-amino-5-butyl-4-chloro-6-phenylpyrimidine]

melting point: 154 to 155 °C
Structure (SMILES): CCCCc1c(Cl)nc(N)nc1-c1ccsc1 [Substance 42, 2-amino-5-butyl-4-chloro-6-(thiophen-3-yl)pyrimidine]

melting point: 189 to 190 °C
Structure (SMILES): CCCCc1c(Cl)nc(N)nc1-c1cccnc1 [Substance 43, 2-amino-5-butyl-4-chloro-6-(pyridin-3-yl)pyrimidine]

melting point: 195 to 196 °C
Structure (SMILES): CCCCc1c(Cl)nc(N)nc1-c1cc2ccccc2o1 [Substance 44, 2-amino-4-(benzofuran-2-yl)-5-butyl-6-chloropyrimidine]

melting point: 154 to 155 °C
Structure (SMILES): CCCCc1c(-c2ccccc2)nc(N)nc1-c1ccccc1 [Substance 45, 2-amino-5-butyl-4,6-diphenylpyrimidine]

melting point: 173 to 174 °C
Structure (SMILES): CCCCc1c(-c2cccnc2)nc(N)nc1-c1cccnc1 [Substance 46, 2-amino-5-butyl-4,6-bis(pyridin-3-yl)pyrimidine]

melting point: 142 to 144 °C
Structure (SMILES): CCCCc1c(-c2cc3ccccc3o2)nc(N)nc1-c1cc2ccccc2o1 [Substance 47, 2-amino-4,6-bis(benzofuran-2-yl)-5-butylpyrimidine]

melting point: 123 to 124 °C
Structure (SMILES): Cc1c(Cl)nc(NC=O)nc1Cl [Substance 48, 4,6-dichloro-2-formamido-5-methylpyrimidine]

melting point: 116 to 118 °C
Structure (SMILES): CCc1c(Cl)nc(NC=O)nc1Cl [Substance 49, 4,6-dichloro-5-ethyl-2-formamidopyrimidine]

melting point: 92 to 94 °C
Structure (SMILES): CCCc1c(Cl)nc(NC=O)nc1Cl [Substance 50, 4,6-dichloro-2-formamido-5-propylpyrimidine]

Structure (SMILES): CCCCc1c(Cl)nc(NC=O)nc1Cl [Substance 51, 5-butyl-4,6-dichloro-2-formamidopyrimidine]
melting point: 82 to 83 °C

melting point: 83 to 84 °C
Structure (SMILES): [2H]C([2H])([2H])C([2H])([2H])C([2H])([2H])C([2H])([2H])c1c(Cl)nc(NC=O)nc1Cl [Substance 52, 5-(perdeutero-butyl)-4,6-dichloro-2-formamidopyrimidine]

melting point: 95 to 96 °C
Structure (SMILES): CC(C)c1c(Cl)nc(NC=O)nc1Cl [Substance 53, 4,6-dichloro-2-formamido-5-isopropylpyrimidine]

Structure (SMILES): CC(C)c1c(Cl)nc(NC=O)nc1Cl [Substance 53]
Production of nitric oxide in % of the controls [1]: 0.70 ± 0.22 % of the controls | Production of prostaglandins in % of the controls [2]: 8.57 ± 0.99 % of the controls | Cell viability in % of the controls (peritoneal cells of mice): 60.02 ± 0.29 % of the controls | Effect on tube formation ([3]; 10 μmol/L): only limited effect | Incomplete tube formation ([3]; 25 μmol/L): ~46% | Capillary tube formation [3]: inhibited capillary tube formation in a dose dependent manner | HUVEC cell proliferation (HUVEC): did not influence HUVEC cell proliferation

Structure (SMILES): CCC(C)c1c(Cl)nc(NC=O)nc1Cl (centres unmarked) [Substance 54, 5-(sec-butyl)-4,6-dichloro-2-formamidopyrimidine]
melting point: 92 to 93 °C

melting point: 80 to 81 °C
Structure (SMILES): CCCCCCc1c(Cl)nc(NC=O)nc1Cl [Substance 55, 4,6-dichloro-2-formamido-5-hexylpyrimidine]

melting point: 95 to 96 °C
Structure (SMILES): O=CNc1nc(Cl)c(-c2ccccc2)c(Cl)n1 [Substance 56, 4,6-dichloro-2-formamido-5-phenylpyrimidine]

melting point: 85 to 86 °C
Structure (SMILES): C=CCc1c(Cl)nc(NC=O)nc1Cl [Substance 57, 5-allyl-4,6-dichloro-2-formamidopyrimidine]

melting point: 127 to 128 °C
Structure (SMILES): C#CCc1c(Cl)nc(NC=O)nc1Cl [Substance 58, 4,6-dichloro-2-formamido-5-(prop-2-yn-1-yl)pyrimidine]

melting point: 93 to 95 °C
Structure (SMILES): O=CNc1nc(Cl)c(Cc2ccccc2)c(Cl)n1 [Substance 59, 5-benzyl-4,6-dichloro-2-formamidopyrimidine]

melting point: 113 to 115 °C
Structure (SMILES): C=C(Cl)Cc1c(Cl)nc(NC=O)nc1Cl [Substance 60, 4,6-dichloro-5-(2-chloroallyl)-2-formamidopyrimidine]

melting point: 62 to 63 °C
Structure (SMILES): CCCCc1c(Cl)ncnc1Cl [Substance 61, 5-butyl-4,6-dichloropyrimidine]

melting point: 50 to 51 °C
Structure (SMILES): CCCCc1c(Cl)nc(C)nc1Cl [Substance 62, 5-butyl-4,6-dichloro-2-methylpyrimidine]

melting point: 42 to 45 °C
Structure (SMILES): CCCCc1c(Cl)nc(N(C)C)nc1Cl [Substance 63, 5-butyl-4,6-dichloro-2-(dimethylamino)pyrimidine]

melting point: 73 to 75 °C
Structure (SMILES): CCCCc1c(Cl)nc(O)nc1Cl [Substance 65, 5-butyl-4,6-dichloro-2-hydroxypyrimidine]

Structure (SMILES): [N-]=[N+]=[N-] [sodium azide, reference compound]
Number of revertants, positive control for −MA I ([4]; arrangement of FIG. 5 (TA 100), without metabolic activation, 1.5 μg): > 500
